According to patent publication US4374765A, “Mammalian collagenase inhibitors” (American Home Products Corporation, priority 1981, dated 1983):
Residues, ends and D or L forms follow the SMILES beside them.

Tested on: collagenase
Assay: collagenase inhibition, acetyl 14C collagen hydrolysis (procedure of Sellers et al.)
Assay type: biochemical
Conditions: 2mM inhibitor, 35° C., 5 to 18 hours, Tris-CaCl2 pH 7.4, vs control devoid of inhibitor
Experimental: The inhibitory effect of the compounds of this invention toward collagenase was determined following the procedure of Sellers et al., Biochem. J. 167 353-360 (1977) whereby the 2mM of the inhibitor being tested is incubated at 35° C. for from 5 to 18 hours (depending upon the potency of the collagenase) with collagen and collagenase (buffered with Tris®--CaCl2; pH 7.4). The collagen is acetyl ^14 C collagen. The samples are centrifuged and an aliquot removed for assay on a scintillation counter. Because native collagen forms insoluble fibrils under the test conditions, the supernatant liquid contains radioactivity as a measure of hydrolysis. The collagenase activity in the presence of 2mM inhibitor is compared to activity in a control devoid of hinibitor and the results reported as percent inhibition of collagenase activity. Each of the compounds of this invention have been established as active collagenase inhibitors by the test procedure.

CC(=O)NCC(=O)N[C@@H](CS)C(=O)NCC(=O)N[C@@H](CCC(=O)O)C(=O)N[C@@H](CCC(=O)O)C(N)=O [CH3 CO-Gly-L-Cys-Gly-L-Glu-L-Glu-NH2] (Ac-GCGEE-NH2)
Percent collagenase inhibition: 80%
